This passage reports IC50 results from patent US10364245B2 (CHIESI FARMACEUTICI S.p.A., priority 2017, dated 2019).

Assay [1] has as its system Peripheral Blood Mononuclear Cells (PBMCs), TNFα release. Description: LPS-stimulated PBMC TNFα release assay. Type of assay: cell-based. The note with it: human PBMC, LPS (10 ng/ml), 18 h, compound 1 h before LPS; read-out: LPS-stimulated PBMC TNFα release inhibition. The essentials:
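TNFα in cell-free supernatant, read on MSD plates, gave % inhibition curves and IC50 (≥3 separate experiments). Healthy-donor PBMCs had 1 h compound exposure at 37 °C in 1% FBS medium, then 18 h stimulation with 10 ng/ml LPS, after a 3 h serum-free rest.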

Another assay deals with T1, p38 alpha (Homo sapiens, UniProt Q16539).
T1 construct: purchased Invitrogen PV3304
T1 sequence (Q16539 whole entry): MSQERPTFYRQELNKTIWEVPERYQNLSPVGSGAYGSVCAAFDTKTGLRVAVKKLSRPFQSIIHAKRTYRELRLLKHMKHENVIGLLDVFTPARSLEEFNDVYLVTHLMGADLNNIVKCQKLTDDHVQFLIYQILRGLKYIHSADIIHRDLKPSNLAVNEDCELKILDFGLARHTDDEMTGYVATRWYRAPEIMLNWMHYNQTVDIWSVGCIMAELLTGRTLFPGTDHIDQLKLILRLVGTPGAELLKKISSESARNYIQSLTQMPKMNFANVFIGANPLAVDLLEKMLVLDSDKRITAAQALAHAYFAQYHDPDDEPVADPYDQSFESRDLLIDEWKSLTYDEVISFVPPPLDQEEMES
Kind of assay: P38 alpha enzyme inhibition assay (Alphascreen kinase activity assay). Type of assay: biochemical. The note with it: 100 pM p38 alpha, 2 hours preincubation at 25° C., 250 μM ATP, ATF-2 fusion protein; read-out: p38α inhibition. In a few lines: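 Phosphorylation of ATF-2 fusion protein (0.3 μg/ml) read by AlphaScreen with anti-phospho-ATF2 antibody after 1 h kinase reaction at 25 °C, initiated by 250 μM ATP. Compounds first incubated 2 h at 25 °C with 100 pM p38 alpha in pH 7.5 HEPES buffer, 1% DMSO. IC50 derived from concentration-response data.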
(In general: Bead proximity is the source of the signal in Alpha formats.)

Structures are written as SMILES. Where only a bound is given, the exact number is not on record here.

In the case of `CCC(CC)c1nnc2ccc(O[C@@H]3CC[C@H](NC(=O)Nc4cc(C(C)(C)C)nc(C(=O)NCCN5CCOCC5)n4)c4ccccc43)cn12` [Example 69, 4-(tert-butyl)-N-(2-morpholinoethyl)-6-(3-((1S,4R)-4-((3-(pentan-3-yl)-[1,2,4]triazolo[4,3-a]pyridin-6-yl)oxy)-1,2,3,4-tetrahydronaphthalen-1-yl)ureido)pyrimidine-2-carboxamide], the IC50 is 1 to 5 nM in assay [1] and less than 1 nM at p38 alpha.

Regarding `COCCN(C)CCNC(=O)c1nc(NC(=O)N[C@H]2CC[C@@H](Oc3ccc4nnc(C(C)C)n4c3)c3ccccc32)cc(C(C)(C)C)n1` [Example 70, 4-(tert-butyl)-6-(3-((1S,4R)-4-((3-isopropyl-[1,2,4]triazolo[4,3-a]pyridin-6-yl)oxy)-1,2,3,4-tetrahydronaphthalen-1-yl)ureido)-N-(2-((2-methoxyethyl)(methyl)amino)ethyl)pyrimidine-2-carboxamide], the figures for the IC50 (in assay [1]; at p38 alpha) were more than 5 nM and 1 to 10 nM, respectively.

With `CCC(CC)c1nnc2ccc(O[C@@H]3CC[C@H](NC(=O)Nc4cc(C(C)(C)C)nc(C(=O)NCCO)n4)c4ccccc43)cn12` [Example 72, 4-(tert-butyl)-N-(2-hydroxyethyl)-6-(3-((1S,4R)-4-((3-(pentan-3-yl)-[1,2,4]triazolo[4,3-a]pyridin-6-yl)oxy)-1,2,3,4-tetrahydronaphthalen-1-yl)ureido)pyrimidine-2-carboxamide], the IC50 was 1 to 5 nM in assay [1] and less than 1 nM at p38 alpha.

For the compound `CCC(CC)c1nnc2ccc(O[C@@H]3CC[C@H](NC(=O)Nc4cc(C(C)(C)C)nc(C(=O)NCCN(C)CCOC)n4)c4ccccc43)cn12` [Example 73, 4-(tert-butyl)-N-(2-((2-methoxyethyl)(methyl)amino)ethyl)-6-(3-((1S,4R)-4-((3-(pentan-3-yl)-[1,2,4]triazolo[4,3-a]pyridin-6-yl)oxy)-1,2,3,4-tetrahydronaphthalen-1-yl)ureido)pyrimidine-2-carboxamide], the IC50 in assay [1] was 1 to 5 nM; on p38 alpha, less than 1 nM.

`CN(C)CCNC(=O)c1nc(NC(=O)N[C@H]2CC[C@@H](Oc3ccc4nnc(C5CCCC5)n4c3)c3ccccc32)cc(C(C)(C)C)n1` [Example 74, 4-(tert-butyl)-6-(3-((1S,4R)-4-((3-cyclopentyl-[1,2,4]triazolo[4,3-a]pyridin-6-yl)oxy)-1,2,3,4-tetrahydronaphthalen-1-yl)ureido)-N-(2-(dimethylamino)ethyl)-pyrimidine-2-carboxamide]: the figures for the IC50 (in assay [1]; on p38 alpha) were more than 5 nM and 1 to 10 nM, respectively.

Consider `CC(C)(C)c1cc(NC(=O)N[C@H]2CC[C@@H](Oc3ccc4nnc(C5CCCC5)n4c3)c3ccccc32)nc(C(=O)NCCN2CCOCC2)n1` [Example 75, 4-(tert-butyl)-6-(3-((1S,4R)-4-((3-cyclopentyl-[1,2,4]triazolo[4,3-a]pyridin-6-yl)oxy)-1,2,3,4-tetrahydronaphthalen-1-yl)ureido)-N-(2-morpholinoethyl)-pyrimidine-2-carboxamide], for which the IC50 was more than 5 nM in assay [1] and 1 to 10 nM on p38 alpha.

As to `COCCN(C)CCNC(=O)c1nc(NC(=O)N[C@H]2CC[C@@H](Oc3ccc4nnc(C5CCCC5)n4c3)c3ccccc32)cc(C(C)(C)C)n1` [Example 76, 4-(tert-butyl)-6-(3-((1S,4R)-4-((3-cyclopentyl-[1,2,4]triazolo[4,3-a]pyridin-6-yl)oxy)-1,2,3,4-tetrahydronaphthalen-1-yl)ureido)-N-(2-((2-methoxyethyl)(methyl)-amino)ethyl)pyrimidine-2-carboxamide], the IC50 in assay [1] is more than 5 nM; on p38 alpha, 1 to 10 nM.

Take `CN(CCO)CCNC(=O)c1nc(NC(=O)N[C@H]2CC[C@@H](Oc3ccc4nnc(C(C)(C)C)n4c3)c3ccccc32)cc(C(C)(C)C)n1` [Example 77, 4-(tert-butyl)-6-(3-((1S,4R)-4-((3-(tert-butyl)-[1,2,4]triazolo[4,3-a]pyridin-6-yl)oxy)-1,2,3,4-tetrahydronaphthalen-1-yl)ureido)-N-(2-((2-hydroxyethyl)(methyl)-amino)ethyl)pyrimidine-2-carboxamide]: the IC50 in assay [1] was 1 to 5 nM; at p38 alpha, less than 1 nM.
